Source: PMC6397271 (Scientific Reports, 2019)
≈ marks a conversion by molar mass, not a printed value. Where two headings read alike, the source gives them in different places.

Assays:
[1] = test system: Enterococcus faecalis 3937158; experiment: microbe, parasite or virus in culture; format: cell-based
Procedure, shortened: (§1)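 MICs were measured by microbroth dilution against MRSA in cation-adjusted Mueller-Hinton broth and enterococci in Brain Heart Infusion broth. Viability was read with resazurin dye.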

[2] = test system: Enterococcus faecium 3934825; experiment: microbe, parasite or virus in culture; format: cell-based
Procedure, shortened: as §1

[3] = test system: intracellular MRSA 12673 strain in HEK293 cells; experiment: Intracellular antimicrobial (infection) assay; format: cell-based, Staphylococcus aureus
Procedure: HEK293 (human embryonic kidney) cells were purchased form Cell Line Services (Germany). The cells were cultured in Dulbecco’s Modified Eagle’s (DMEM) medium with 4.5 g/l glucose (Sigma-Aldrich, Germany), supplemented with 10% fetal bovine serum (FBS, Sigma-Aldrich, Germany) and 1% PEN/STREP (Sigma-Aldrich, Germany). Cells were maintained in a 5% CO2 incubator at 37 °C. The original lines were checked for the presence of mycoplasma.
HEK293 cells were seeded at a density of 1.5 × 10^5 cells/well in 24-well plates in an antibiotic-free medium (DMEM + 10% FBS) and were allowed to adhere overnight. Next, the medium was removed and overnight culture of S. aureus strain (12673) suspended in DMEM + 1% FBS (invasive medium) at a ratio of bacteria/cells 25:1 was added. To enable bacterial invasion, the cells were incubated with bacterial suspensions (37 °C, 5% CO2) for 2 h.
After this period of time extracellular bacteria were eliminated by a 30 min incubation with 20 U/ml lysostaphin. […] The lysis of human cells was carried out with 0.2% Trition-X-100 (Sigma-Aldrich, Germany). The obtained cell lysates were serially diluted in PBS and plated on agar plates and CFU/ml was determined.
The results are presented as the percentage of S. aureus intracellular survival after treatment in comparison to that of non-treated cells (control). The assay was performed in triplicates.

[4] = test system: S.aureus MRSA hetero-VISA 6347; experiment: microbe, parasite or virus in culture; format: cell-based, Staphylococcus aureus; details: Staphylococcus aureus
Procedure: (§2) To find out MICA(with B) and MICB(with A) a checkerboard assay was carried out in 96-well microtiter plates (each test was performed in triplicates). […] Each well in a 96-well plate was inoculated with 100 µL of bacterial inoculum of 1 × 10^5 CFU/mL. For this purpose only bacterial strains of MRSA (N315, 12673 and 6347) were used. Next, the plates were incubated at 37 °C for 24 h.
(§3) FIC index (FICI) is the sum of FICA and FICB. The interpretation of the calculated FICIs is in accordance to the following principle: FICI ≤ 0.5 synergy; FICI > 0.5 and ≤4 indifference (no interaction); FICI > 4, antagonism.

[5] = test system: S.aureus MRSA 12673; experiment: microbe, parasite or virus in culture; format: cell-based, Staphylococcus aureus; details: Staphylococcus aureus, MRSA
Procedure: as §2, §3

[6] = test system: S.aureus MRSA N315; experiment: microbe, parasite or virus in culture; format: cell-based, Staphylococcus aureus; details: Staphylococcus aureus, MRSA
Procedure: as §2, §3

[7] = test system: bacterial strain not named; experiment: Raw data of the MIC measurement (absorbance); format: cell-based; details: concentration marked (MIC) in raw absorbance data
Procedure: The strains were grown in Mueller-Hinton broth (MH cation-adjusted, Becton Dickinson) or Brain Heart Infusion broth (BHI, Becton Dickinson), respectively. The cultivation was carried out in an aerobic atmosphere at 37 °C for 24 hours and, afterwards, the bacterial cultures were diluted in geometric progression with a proper broth. Next, 100 µl of each dilution was inoculated in an agar plate and incubated at 37 °C for 24 h. The next procedures included determination of Colony Forming Units (CFU)/ml and minimal inhibitory concentration (MIC) of the compounds in question. The latter procedure was carried out according to the microbroth dilution technique using 96-well plates. The MICs were evaluated by using the metabolic assay based on the resazurin dye. The assay was performed in triplicates.

[8] = microbroth dilution, 96-well, resazurin, 37 °C, 24 h, mean ± SD, at least three independent experiments in triplicates, listed as Van-HCl
[9] = same test as μM value, mean ± SD
[10] = 24 h, read-out: MIC Van(with TP10), MICA (with B)

CN[C@H](CC(C)C)C(=O)N[C@H]1C(=O)N[C@@H](CC(N)=O)C(=O)N[C@H]2C(=O)N[C@H]3C(=O)N[C@H](C(=O)N[C@H](C(=O)O)c4cc(O)cc(O)c4-c4cc3ccc4O)[C@H](O)c3ccc(c(Cl)c3)Oc3cc2cc(c3O[C@@H]2O[C@H](CO)[C@@H](O)[C@H](O)[C@H]2O[C@H]2C[C@](C)(N)[C@H](O)[C@H](C)O2)Oc2ccc(cc2Cl)[C@H]1O [Van, vancomycin, reference compound]
MIC ([1]; Enterococcus faecalis, 3937158, 24 h, microbroth dilution, 96-well, resazurin, 37 °C, 24 h, mean ± SD, at least three independent experiments in triplicates, read-out: MIC): 25 µM (≈ 36.2 µg/mL) | MIC ([1]; Enterococcus faecalis, 3937158, raw MIC, first block, test a, repetition 1, read-out: MIC1a): 25 µM (≈ 36.2 µg/mL) | MIC ([1]; Enterococcus faecalis, 3937158, raw MIC, first block, test a, repetition 2, read-out: MIC2a): 25 µM (≈ 36.2 µg/mL) | MIC ([1]; Enterococcus faecalis, 3937158, raw MIC, first block, test a, repetition 3, read-out: MIC3a): 12.5 µM (≈ 18.1 µg/mL) | MIC ([1]; Enterococcus faecalis, 3937158, raw MIC, first block, test b, repetition 1, read-out: MIC1b): 25 µM (≈ 36.2 µg/mL) | MIC ([1]; Enterococcus faecalis, 3937158, raw MIC, first block, test b, repetition 2, read-out: MIC2b): 25 µM (≈ 36.2 µg/mL) | MIC ([1]; Enterococcus faecalis, 3937158, raw MIC, first block, test b, repetition 3, read-out: MIC3b): 12.5 µM (≈ 18.1 µg/mL) | MIC ([1]; Enterococcus faecalis, 3937158, raw MIC, test a, repetition 1, read-out: MIC1a): 37.1 µM (≈ 53.8 µg/mL) | MIC ([1]; Enterococcus faecalis, 3937158, raw MIC, test a, repetition 2, read-out: MIC2a): 37.1 µM (≈ 53.8 µg/mL) | MIC ([1]; Enterococcus faecalis, 3937158, raw MIC, test a, repetition 3, read-out: MIC3a): 18.6 µM (≈ 26.9 µg/mL) | MIC ([1]; Enterococcus faecalis, 3937158, raw MIC, test b, repetition 1, read-out: MIC1b): 37.1 µM (≈ 53.8 µg/mL) | MIC ([1]; Enterococcus faecalis, 3937158, raw MIC, test b, repetition 2, read-out: MIC2b): 37.1 µM (≈ 53.8 µg/mL) | MIC ([1]; Enterococcus faecalis, 3937158, raw MIC, test b, repetition 3, read-out: MIC3b): 18.6 µM (≈ 26.9 µg/mL) | MIC [1, 8]: 25.0 ± 6.5 µM (≈ 36.2 µg/mL) | MIC in (μg/ml) [1, 9]: 37.1 ± 9.6 µg/mL (≈ 25.6 µM) | MIC ([2]; Enterococcus faecium, 3934825, 24 h, microbroth dilution, 96-well, resazurin, 37 °C, 24 h, mean ± SD, at least three independent experiments in triplicates, read-out: MIC): 25 µM (≈ 36.2 µg/mL) | MIC ([2]; Enterococcus faecium, 3934825, raw MIC, first block, test a, repetition 1, read-out: MIC1a): 25 µM (≈ 36.2 µg/mL) | MIC ([2]; Enterococcus faecium, 3934825, raw MIC, first block, test a, repetition 2, read-out: MIC2a): 25 µM (≈ 36.2 µg/mL) | MIC ([2]; Enterococcus faecium, 3934825, raw MIC, first block, test a, repetition 3, read-out: MIC3a): 12.5 µM (≈ 18.1 µg/mL) | MIC ([2]; Enterococcus faecium, 3934825, raw MIC, first block, test b, repetition 1, read-out: MIC1b): 12.5 µM (≈ 18.1 µg/mL) | MIC ([2]; Enterococcus faecium, 3934825, raw MIC, first block, test b, repetition 2, read-out: MIC2b): 25 µM (≈ 36.2 µg/mL) | MIC ([2]; Enterococcus faecium, 3934825, raw MIC, first block, test b, repetition 3, read-out: MIC3b): 25 µM (≈ 36.2 µg/mL) | MIC ([2]; Enterococcus faecium, 3934825, raw MIC, test a, repetition 1, read-out: MIC1a): 37.1 µM (≈ 53.8 µg/mL) | MIC ([2]; Enterococcus faecium, 3934825, raw MIC, test a, repetition 2, read-out: MIC2a): 37.1 µM (≈ 53.8 µg/mL) | MIC ([2]; Enterococcus faecium, 3934825, raw MIC, test a, repetition 3, read-out: MIC3a): 37.1 µM (≈ 53.8 µg/mL) | MIC ([2]; Enterococcus faecium, 3934825, raw MIC, test b, repetition 1, read-out: MIC1b): 18.6 µM (≈ 26.9 µg/mL) | MIC ([2]; Enterococcus faecium, 3934825, raw MIC, test b, repetition 2, read-out: MIC2b): 37.1 µM (≈ 53.8 µg/mL) | MIC ([2]; Enterococcus faecium, 3934825, raw MIC, test b, repetition 3, read-out: MIC3b): 37.1 µM (≈ 53.8 µg/mL) | MIC [2, 8]: 25.0 ± 6.5 µM (≈ 36.2 µg/mL) | MIC in (μg/ml) [2, 9]: 37.1 ± 7.6 µg/mL (≈ 25.6 µM) | percentage of S. aureus intracellular survival ([3]; HEK293 infected 25:1 for 2 h, lysostaphin 20 U/ml 30 min, compound 25 µM for 24 h, CFU/ml of lysates vs non-treated cells, triplicates, Fig. 2): ~95% | intracellular MRSA killed (bacterial killing rate) ([3]; MRSA-infected HEK293 cells, 25 µM, 24 h): 5% | MIC [4, 10]: 1.6 µM | MIC ([4]; read-out: MIC Van (A), MICA): 4.1 µM | MIC [5, 10]: 1.6 µM | MIC ([5]; read-out: MIC Van (A), MICA): 4.1 µM | MIC [6, 10]: 1.6 µM | MIC ([6]; read-out: MIC Van (A), MICA): 2 µM | MIC [7]: 3.13 µM (≈ 4.54 µg/mL)
